{"source": "patent US20250375417A1", "about": "“OREXIN RECEPTOR 2 (OX2R) AGONIST FOR USE IN NARCOLEPSY TYPE 1 (NT1)” (TAKEDA PHARMACEUTICAL COMPANY LIMITED, priority 2024, published 2025)", "format_in_all_cases": "in vivo, human", "key": {"[1]": {"test_system": "participants with NT1", "assay": "Epworth Sleepiness Scale (ESS), Phase 2 NT1 trial", "description": "(§1) In some aspects of the methods described herein, the subject experiences a lower Epworth Sleepiness Scale (ESS) total score after a treatment period compared to an untreated subject. The ESS is a subjective, self-administered scale that has been validated and used extensively as a key endpoint in studies in patients with narcolepsy to measure excessive daytime sleepiness (EDS). The ESS provides individuals with 8 different situations of daily life and asks them how likely they are to fall asleep in those situations (scored 0 to 3) and to try to imagine their likelihood of dozing even if they have not actually been in the identical situation; the scores are summed to give an overall score of 0 to 24. Higher scores indicate stronger subjective daytime sleepiness, and scores below 10 are considered to be within the reference range.\nIn certain aspects, the ESS is administered to assess sleep propensity on selected days indicated in the Schedule of Activities for the trial. Participants are asked to evaluate their subjective sleepiness based on recalling their most recent daily life experiences.\nRandomization was stratified by region. Starting on the morning of Day 1, the study drug was administered at approximately the same time each day for 8 or 12 weeks. […]"}, "[2]": {"test_system": "participants with NT1", "assay": "Daily sleep diaries (disturbing dreams), Phase 2 NT1 trial", "description": "Polysomnography (PSG) was collected at baseline and after 27 and 54 days of treatment. Sleep was manually scored following AASM guidelines; sleep metrics were extracted then computed by whole night and by quarter-night. Continuous accelerometry (Empatica EmbracePlus watch) allowed assessment of sleep in a naturalistic manner at home. Daily sleep diaries were used to capture subjective reports. Mixed effects models were fit with treatment, quarter-night, visit, and their interactions as fixed effects and random intercepts per subject. A reference PSG dataset (Vilela M, et al. J Sleep Res 2024; e14216) from CHU Montpellier (49 clinical controls and 114 patients with NT1, all drug-free) was analyzed to establish DNS characteristics of NT1.\nAt baseline, participants reported disturbing dreams, which contribute to DNS, an average of 2.8 nights/week (no significant differences across cohorts) in response to “Did you have disturbing dreams, nightmares, or frightening dreams during the night?” These reductions potentially relate to improvements in REM regulation with Compound A."}, "[3]": {"test_system": "participants with NT1", "assay": "Exit interviews after Week 8, Phase 2 NT1 trial", "settings": "most Compound A participants (n=21)", "protocol": "Treatment Satisfaction Questionnaire for Medication (TSQM) and exit interview results from the study were evaluated to explore the impact of Compound A treatment on individuals with ICSD-3-confirmed NT1. Participants aged 18-70 years, with an Epworth Sleepiness Scale (ESS) score>12, and ≥4 partial/complete episodes of cataplexy/week were included in the trial. Participants were randomized to oral Compound A (0.5 mg twice 3 hours apart, 2 mg twice 3 hours apart, 2 mg then 5 mg 3 hours later, or 7 mg once daily), or placebo.\nFIG. 19 and FIG. 20 show the results of exit interview outcomes at Week 8. […] Symptoms rated as most important to improve from baseline were EDS, cataplexy and impaired cognitive function (FIG. 19); most frequently cited impacts were work/school-related, social/leisure activities and general quality of life (FIG. 20). Changes in impacts were meaningful for Compound A-treated participants but not for placebo-treated participants. Overall, 94.7% of Compound A-treated participants (18/19 respondents) would be willing to recommend Compound A to others with narcolepsy."}, "[4]": {"test_system": "participants with NT1", "assay": "Safety and tolerability (TEAEs), Phase 2 NT1 trial", "description": "Standard safety endpoints (e,g., treatment […] adverse events (TEAEs), physical examination findings, vital signs, 12-lead ECG measures, clinical laboratory results) for early clinical investigation were included. Further, because cardiovascular effects have been noted in nonclinical models with Compound A and OX2R agonists in general, and these effects are thought to be on-target effects, close monitoring of cardiovascular parameters, including time-matched BP measurements before and after dosing to detect any changes and potential tolerance in BP after the administration of repeat doses to participants with NT1 were included. Ambulatory blood pressure monitoring (ABPM) was also obtained to assess BP in the outpatient setting in a rigorous manner.\nIn addition, because liver function test (LFT) elevation cases have been observed in another OX2R agonist with structural similarity, LFTs (ALT, AST, GGT, and total bilirubin) were closely monitored.\nThe following doses were studied: • Compound A Dose Regimen 1:0.5 mg twice daily approximately 3 hours apart. • Compound A Dose Regimen 2:2 mg twice daily approximately 3 hours apart. • Compound A Dose Regimen 3:2 mg followed by 5 mg approximately 3 hours apart. • Compound A Dose Regimen 4:7 mg once daily (QD). • Other products required for the study: Matching placebo.\nEndpoints included change from baseline to Week 8 in mean sleep onset latency on the Maintenance of Wakefulness Test (SOL-MWT; primary endpoint), ESS total score, weekly cataplexy rate (WCR), and occurrence of treatment-emergent adverse events (TEAEs)."}, "[5]": {"test_system": "participants with NT2", "assay": "ESS total score, Phase 2 NT2 trial", "settings": "not statistically significant (p>0.05)", "description": "as §1\nRandomization was stratified by region. Starting on the morning of Day 1, the study drug was administered at approximately the same time each day for 8 weeks.\nIn this study, the interventions includes: • Dose Regimen 1:2 mg followed by 2 mg approximately 3 hours apart. • Dose Regimen 2:2 mg followed by 5 mg approximately 3 hours apart or 7 mg once daily. • Other products required for the study: placebo.\nEligible participants were age 18-70 years, with Epworth Sleepiness Scale (ESS) score>12 and no other current EDS-related medical conditions. […]"}, "[6]": {"settings": "Compound A-treated participants"}}, "data": [{"smiles": "CCS(=O)(=O)N[C@@H]1[C@H](Cc2cccc(-c3cc(F)cc(F)c3)c2F)N(C(=O)C(C)(C)O)CC1(F)F", "note": "[Compound A, N-{(2S,3R)-4,4-difluoro-1-(2-hydroxy-2-methylpropanoyl)-2-[(2,3′,5′-trifluoro[1,1′-biphenyl]-3-yl)methyl]pyrrolidin-3-yl}ethanesulfonamide]", "values": [{"measurement": "Change from baseline to Week 8 in ESS versus placebo", "setting": "[1]; all dose groups, adjusted for multiple comparisons", "value": "statistically significant changes"}, {"measurement": "Participants with ESS≤10", "setting": "[1]; weeks 4 and 8 (FIG. 4)", "value": "Most participants achieved ESS total score≤10"}, {"measurement": "Rate of disturbing dreams, average estimated change from baseline", "setting": "[2]; across all treated cohorts and weeks", "value": "−1.5", "unit": "nights/week"}, {"measurement": "Rate of disturbing dreams, range of estimated change from baseline", "setting": "[2]; range across all treated cohorts and weeks", "value": "−1.8 to −0.8", "unit": "nights/week"}, {"measurement": "Exit interview outcome: change in narcolepsy symptoms and functional impacts", "setting": "[3]", "value": "meaningful improvements in narcolepsy symptoms and functional impacts"}, {"measurement": "Adverse events of mild to moderate insomnia, participants", "setting": "[4]; [6]", "value": 48, "unit": "%"}, {"measurement": "Time to resolution of most insomnia adverse events", "setting": "[4]; [6]", "value": "≤ 1", "unit": "week"}, {"measurement": "Most common TEAEs", "setting": "[4]; Phase 2", "value": "urinary urgency/frequency and insomnia"}, {"measurement": "Hepatotoxicity or visual disturbances", "setting": "[4]; Phase 2, 8 weeks", "value": "No cases of hepatotoxicity or visual disturbances were reported"}, {"measurement": "Tolerability", "setting": "[4]; Phase 2, 8 weeks", "value": "generally well tolerated"}, {"measurement": "Occurrence of TEAEs", "setting": "[4]; all Compound A doses (70/90 patients), 8 weeks", "value": 77.8, "unit": "%"}, {"measurement": "Treatment-related serious TEAEs or discontinuations due to TEAEs", "setting": "[4]; during the study", "value": "No treatment-related serious TEAEs or discontinuations due to TEAEs occurred"}, {"measurement": "ESS total score change from baseline to Week 8 versus placebo", "setting": "[5]; 2 mg/2 mg", "value": "−0.32", "unit": "points"}, {"measurement": "ESS total score change from baseline to Week 8 versus placebo", "setting": "[5]; 2/5 mg", "value": "−3.06", "unit": "points"}]}]}
